For experiment [1], the target named is T1, Progesterone receptor (Oryctolagus cuniculus) (UniProt P06186).
T1 sequence (whole entry): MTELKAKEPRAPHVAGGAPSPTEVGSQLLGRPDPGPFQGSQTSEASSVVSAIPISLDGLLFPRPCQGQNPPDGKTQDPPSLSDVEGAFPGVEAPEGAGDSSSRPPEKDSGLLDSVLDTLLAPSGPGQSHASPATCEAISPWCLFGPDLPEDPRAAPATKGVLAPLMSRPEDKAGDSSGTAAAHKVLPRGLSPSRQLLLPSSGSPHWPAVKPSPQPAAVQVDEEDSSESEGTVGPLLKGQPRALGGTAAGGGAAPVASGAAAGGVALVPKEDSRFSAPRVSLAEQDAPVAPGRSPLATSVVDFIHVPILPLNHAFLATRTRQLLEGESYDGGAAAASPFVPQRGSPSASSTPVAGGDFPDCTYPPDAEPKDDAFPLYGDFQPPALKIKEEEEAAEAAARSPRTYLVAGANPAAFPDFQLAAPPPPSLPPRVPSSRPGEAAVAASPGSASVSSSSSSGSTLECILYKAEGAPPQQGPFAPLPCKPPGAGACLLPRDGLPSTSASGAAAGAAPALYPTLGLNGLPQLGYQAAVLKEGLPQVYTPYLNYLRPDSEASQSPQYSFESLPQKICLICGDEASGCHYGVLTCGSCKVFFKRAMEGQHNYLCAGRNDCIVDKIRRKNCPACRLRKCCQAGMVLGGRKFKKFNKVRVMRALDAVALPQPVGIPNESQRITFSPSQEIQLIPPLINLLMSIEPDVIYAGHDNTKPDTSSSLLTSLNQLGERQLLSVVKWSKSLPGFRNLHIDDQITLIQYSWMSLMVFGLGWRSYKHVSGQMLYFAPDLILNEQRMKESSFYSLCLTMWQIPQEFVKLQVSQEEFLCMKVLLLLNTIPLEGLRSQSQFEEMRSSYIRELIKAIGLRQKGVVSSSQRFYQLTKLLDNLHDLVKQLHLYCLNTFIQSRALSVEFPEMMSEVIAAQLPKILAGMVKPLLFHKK
The experiment in a line: Percent inhibition of [3H]- progesterone binding to rabbit uterine progesterone receptor, at 10e-5 M compound concentration. The settings on record: at 10 µM.

In experiment [2] the target is T1, Progesterone receptor (Oryctolagus cuniculus). Briefly: Percent inhibition of [3H]- progesterone binding to rabbit uterine progesterone receptor, at 10e-6 M compound concentration. The settings on record: at 1 µM.
Experiment [3] has the same target. Briefly: Percent inhibition of [3H]- progesterone binding to rabbit uterine progesterone receptor, at 10e-8 M compound concentration. Conditions: at 0.01 µM.
For experiment [4] the target is unchanged. Briefly: Percent inhibition of [3H]- progesterone binding to rabbit uterine progesterone receptor, at 10e-9 M compound concentration. The settings on record: at 0.001 µM.
Experiment [5] has the same target. The experiment in a line: Percent inhibition of [3H]- progesterone binding to rabbit uterine progesterone receptor, at 10e-7 M compound concentration. Conditions: at 0.1 µM.
Experiment [6] relates to Cricetinae gen. sp. The experiment in a line: Activity against pregnancy-interceptive activity in Syrian golden hamsters, when administered, at a dose of 15.20 mmol/kg. Type of experiment: functional.
The subject of experiment [7] is Progesterone receptor (Mesocricetus auratus). The experiment in a line: Percent inhibition of [3H]- progesterone binding to Syrian golden hamster uterine cytosol progesterone receptor, at 10e-5 M compound concentration. The settings on record: at 10 µM.
The test system is the same in experiment [8]. Briefly: Percent inhibition of [3H]- progesterone binding to Syrian golden hamster uterine cytosol progesterone receptor, at 10e-7 M compound concentration. The settings on record: at 0.1 µM.
Experiment [9] has the same test system. Briefly: Percent inhibition of [3H]- progesterone binding to Syrian golden hamster uterine cytosol progesterone receptor, at 10e-8 M compound concentration. Conditions: at 0.01 µM.
The test system is the same in experiment [10]. Briefly: Percent inhibition of [3H]- progesterone binding to Syrian golden hamster uterine cytosol progesterone receptor, at 10e-9 M compound concentration. Conditions: at 0.001 µM.
Experiment [11] shares this test system. Briefly: Percent inhibition of [3H]- progesterone binding to Syrian golden hamster uterine cytosol progesterone receptor, at 10e-6 M compound concentration. Conditions: at 1 µM.
The subject of experiment [12] is Cricetinae gen. sp. The experiment in a line: Activity against pregnancy-interceptive activity in Syrian golden hamsters, when administered, at a dose of 5.64 mmol/kg. Type of experiment: functional.
Experiment [13] concerns Cricetinae gen. sp. The experiment in a line: Activity against pregnancy-interceptive activity in Syrian golden hamsters, when administered, at a dose of 12.08 mmol/kg. It is filed as functional.
Experiment [14] has as its system Cricetinae gen. sp. The experiment in a line: Activity against pregnancy-interceptive activity in Syrian golden hamsters, when administered, at a dose of 6.66 mmol/kg. Type of experiment: functional.
Experiment [15] deals with Cricetinae gen. sp. The experiment in a line: Activity against pregnancy-interceptive activity in Syrian golden hamsters, when administered, at a dose of 6.36 mmol/kg. It is filed as functional, Cricetulus griseus.
Experiment [16] has as its system Cricetinae gen. sp. Briefly: Activity against pregnancy-interceptive activity in Syrian golden hamsters, when administered, at a dose of 13.15 mmol/kg. It is filed as functional.
In experiment [17] the test system is Cricetinae gen. sp. Briefly: Activity against pregnancy-interceptive activity in Syrian golden hamsters, when administered, at a dose of 4.95 mmol/kg. It is filed as functional.
Experiment [18] deals with Cricetinae gen. sp. Briefly: Activity against pregnancy-interceptive activity in Syrian golden hamsters, when administered, at a dose of 5.54 mmol/kg. It is filed as functional.
The test system of experiment [19] is Cricetinae gen. sp. Briefly: Activity against pregnancy-interceptive activity in Syrian golden hamsters, when administered, at a dose of 14.62 mmol/kg. Type of experiment: functional.
Experiment [20] deals with Cricetinae gen. sp. The experiment in a line: Activity against pregnancy-interceptive activity in Syrian golden hamsters, when administered, at a dose of 6.70 mmol/kg. It is filed as functional.
The subject of experiment [21] is Cricetinae gen. sp. Briefly: Activity against pregnancy-interceptive activity in Syrian golden hamsters, when administered, at a dose of 8.82 mmol/kg. Type of experiment: functional.
The test system of experiment [22] is Cricetinae gen. sp. Briefly: Activity against pregnancy-interceptive activity in Syrian golden hamsters, when administered, at a dose of 8.35 mmol/kg. It is filed as functional, Cricetulus griseus.
For experiment [23], the system named is Cricetinae gen. sp. Briefly: Activity against pregnancy-interceptive activity in Syrian golden hamsters, when administered, at a dose of 6.98 mmol/kg. It is filed as functional.

Consider `COC(=O)C1=C(C)N=C(C)/C(=C(/O)OC)C1c1ccc(C=O)cc1` (stereo not given), for which the inhibition – broadly, how much of the control response was suppressed – in experiment [1] was 15%; in [2], 10%; in [3], 4%; in experiment [4], 3%; in experiment [5], 8%; in [7], 12%. Further, the inhibition in experiment [8] stood at 5%; in experiment [9] it was 9%; in [10], 0%; in experiment [11], 10%. Besides, the Activity in the experiment with Cricetinae gen. sp. [6] was found to be 5.15.

For `COC(=O)C1=C(C)N=C(C)/C(=C(/O)OC)C1c1ccc2nc3n(c2c1)C(=O)c1ccccc1-3` (stereo not given), the inhibition in experiment [1] turned out to be 15%; in experiment [2], 15%; in experiment [3], 0%; in experiment [4], 0%; in experiment [5], 0%; in experiment [7], 16%. For the same compound, the inhibition in [8] came out at 8%; in [9], 9%; in experiment [10], 6%; in experiment [11], 10%. The compound further showed an Activity with Cricetinae gen. sp. [12] of 3.8.

For the compound `COC(=O)Nc1nc2cc(C3C(C(=O)OC)=C(C)N=C(C)/C3=C(/O)OC)ccc2[nH]1` (stereo not given), the inhibition was determined as 20% in experiment [1]; 16% in experiment [2]; 5% in experiment [3]; 5% in [4]; 16% in experiment [5]; 28% in [7]. Further, the inhibition in experiment [8] came to 16%; in [9] it was 10%; in experiment [10], 0%; in experiment [11], 15%. The compound also returned an Activity with Cricetinae gen. sp. [13] of 1.5.

Regarding `CNc1ccc(C2C(C(=O)OC)=C(C)N=C(C)/C2=C(/O)OC)cc1[N+](=O)[O-]` (stereo not given), the inhibition is 14% in experiment [1]; 10% in [2]; 8% in [3]; 5% in experiment [4]; 10% in experiment [5]; 12% in experiment [7]. Further, the inhibition was found to be 10% in [8], 4% in experiment [9], 4% in [10] and 13% in experiment [11]. In the experiment with Cricetinae gen. sp. [14], this compound came in with an Activity of 6.8.

In the case of `COC(=O)C1=C(C)N=C(C)/C(=C(/O)OC)C1c1cc2ccccc2n2nnnc12` (stereo not given), the inhibition was 14% in experiment [1]; 8% in experiment [2]; 10% in [3]; 0% in experiment [4]; 12% in experiment [5]; 10% in [7]. Further, the inhibition in experiment [8] stood at 10%; in experiment [9], 8%; in experiment [10], 0%; in experiment [11] it was 9%. In addition, the Activity with Cricetinae gen. sp. [15] is on record as 2.5.

As for `COC(=O)C1=C(C)N=C(C)/C(=C(/O)OC)C1c1ccc(Cl)c([N+](=O)[O-])c1` (stereo not given), the inhibition in [1] turned out to be 18%; in [2], 10%; in [3], 0%; in experiment [4] it was 0%; in experiment [5], 5%; in [7], 24%. Further, the inhibition in experiment [8] came to 10%; in experiment [9], 5%; in experiment [10], 2%; in [11], 14%. The compound further gave an Activity in the experiment on Cricetinae gen. sp. [16] of 2.6.

For the compound `COC(=O)C1=C(C)N=C(C)/C(=C(/O)OC)C1c1ccc2nc(-c3ccccc3)c(-c3ccccc3)nc2c1` (stereo not given), the inhibition in [1] came out at 16%; in experiment [2], 18%; in experiment [3], 2%; in experiment [4] it was 2%; in experiment [5], 10%; in experiment [7], 18%. Also, the inhibition in [8] is 12%; in experiment [9], 9%; in experiment [10] it was 6%; in experiment [11], 15%. This compound gave an Activity in the experiment on Cricetinae gen. sp. [17] of 4.6.

As to `COC(=O)C1=C(C)N=C(C)/C(=C(/O)OC)C1c1ccc(NCc2ccccc2)c([N+](=O)[O-])c1` (stereo not given), the inhibition in experiment [1] is 12%; in [2] it was 10%; in experiment [3], 10%; in [4] it was 0%; in [5] it was 0%; in experiment [7], 10%. Moreover, the inhibition was determined as 4% in experiment [8], 0% in [9], 0% in experiment [10] and 6% in [11]. In the experiment on Cricetinae gen. sp. [18], this compound gave an Activity of 2.5.

Consider `COC(=O)C1=C(C)N=C(C)/C(=C(/O)OC)C1c1ccc2[nH]nnc2c1` (stereo not given), for which the inhibition in experiment [1] was 22%; in experiment [2], 20%; in experiment [3] it was 8%; in [4], 10%; in experiment [5], 12%; in experiment [7], 26%. Moreover, the inhibition in [8] is 16%; in experiment [9], 12%; in experiment [10], 9%; in experiment [11], 18%. Further, the Activity with Cricetinae gen. sp. [19] is listed as 5.2.

Regarding `COC(=O)C1=C(C)N=C(C)/C(=C(/O)OC)C1c1ccc2[nH]c(S)nc2c1` (stereo not given), the inhibition in [1] stood at 20%; in experiment [2], 18%; in experiment [3] it was 10%; in [4], 0%; in experiment [5] it was 15%; in [7], 30%. The inhibition in experiment [8] came out at 18%; in [9], 10%; in [10], 9%; in experiment [11], 26%. For the same compound, the Activity in the experiment with Cricetinae gen. sp. [20] is on record as 5.

`COC(=O)C1=C(C)N=C(C)/C(=C(/O)OC)C1c1ccc2nc(-c3ccc(OC)cc3)n(Cc3ccc(OC)cc3)c2c1` (stereo not given): the inhibition was determined as 20% in experiment [1]; 16% in experiment [2]; 6% in experiment [3]; 2% in experiment [4]; 10% in experiment [5]; 24% in [7]. The inhibition in [8] came to 15%; in experiment [9], 12%; in experiment [10] it was 10%; in experiment [11] it was 20%. Further, the Activity in the experiment on Cricetinae gen. sp. [21] was determined as 6.

For `COC(=O)C1=C(C)N=C(C)/C(=C(/O)OC)C1c1ccc2nc(-c3ccc(O)c(OC)c3)n(Cc3ccc(O)c(OC)c3)c2c1` (stereo not given), the inhibition was determined as 20% in experiment [1]; 15% in [2]; 8% in experiment [3]; 5% in [4]; 15% in experiment [5]; 18% in [7]. Further, the inhibition in experiment [8] was 12%; in [9] it was 5%; in experiment [10], 3%; in experiment [11], 18%. This compound also returned an Activity in the experiment on Cricetinae gen. sp. [22] of 1.2.

For the compound `COC(=O)C1=C(C)N=C(C)/C(=C(\O)OC)C1c1ccc(NC(C)=O)cc1` (stereo not given), the inhibition in experiment [1] is 15%; in experiment [2], 18%. In the experiment with Cricetinae gen. sp. [23], the Activity was 0.66.

The values are drawn from ChEMBL document CHEMBL1124351, “Syntheses and bioevaluation of substituted dihydropyridines for pregnancy-interceptive activity in hamsters” (1989).
